Assays:
Assay type in all cases: in vivo, mouse (female CDF1 mice)
[1] = system: Mouse colon cancer, Colon26; test: Antitumor effect of compounds 2 and 3 (Test Example 4); conditions: single i.v. at maximum tolerance dose (conjugates 200 mg/kg as DTX, DTX 100 mg/kg)
Text: Mouse colon cancer, Colon26, maintained by serial subcutaneous subculture in mice was minced into about 2-mm square fragments, and the fragments were subcutaneously transplanted on the dorsal part of female CDF1 mice with a trocar. Seven days after tumor transplantation, the polymer conjugates of the present invention (compound 2 and compound 3) and the control drug (docetaxel, DTX) were each intravenously administered once to the mouse tail vein at the respective maximum tolerance dose. The compound 2 and compound 3 were dissolved in 5% glucose solution for injection to a level for the use at a dose of 200 mg/kg as DTX. DTX to be used was prepared by dissolving a commercially available Taxotere injection (for 100 mg/kg use) in a vehicle solution attached to the product, and diluting it with physiological saline at the time of use. After the administration, the major axis (L mm) and minor axis (W mm) of the tumor were measured using a caliper, and the tumor volume was calculated by the formula: (L×W^2)/2.

[2] = system: Mouse colon cancer, Colon26; test: Antitumor effect of compound 4 (Test Example 5); conditions: single i.v. at maximum tolerance dose (compound 4 200 mg/kg as DTX, DTX 100 mg/kg)
Description: Mouse colon cancer, Colon26, maintained by serial subcutaneous subculture in mice was minced into about 2-mm square fragments, and these fragments were subcutaneously transplanted on the dorsal part of female CDF1 mice with a trocar. Seven days after tumor transplantation, the polymer conjugate of the present invention (compound 4) or the control drug (docetaxel, DTX) was intravenously administered once to the mouse tail vein at the maximum tolerance dose. The compound 4 was dissolved in a 5% glucose solution for injection at a level for the use at a dose of 200 mg/kg as DTX. DTX to be used was prepared by dissolving a commercially available Taxotere injection (for the use at a dose of 100 mg/kg use) with a vehicle solution attached to the product and diluting it with physiological saline at the time of use. After the administration, the major axis (L mm) and minor axis (W mm) of the tumor were measured using a caliper, and the tumor volume was calculated by the formula: (L×W^2)/2.

[3] = system: Mouse colon cancer, Colon26; test: Antitumor effect of compound 1 (Test Example 3); conditions: i.v. three times (Day 0, 4, 8), 200 mg/kg as PTX
Description: Mouse colon cancer, Colon26, maintained by serial subcutaneous subculture in mice was minced into about 2-mm square fragments, and the fragments were subcutaneously transplanted on the dorsal part of female CDF1 mice with a trocar. Seven days after tumor transplantation, the polymer conjugate of the present invention (compound 1) or the control drug (paclitaxel, PTX) was administered intravenously to the mouse tail vein three times at an interval of 4 days (Day 0, Day 4 and Day 8 in Table 1) at a dose of 200 mg/kg as PTX. The compound 1 was dissolved in a 5% glucose solution for injection and used. PTX was dissolved in anhydrous ethanol and cremophor (manufactured by Sigma Co., Ltd) and diluted with physiological saline at the time of use. After the administration, the major axis (L mm) and minor axis (W mm) of the tumor were measured using a caliper, and the volume of the tumor was calculated by the formula: (L×W^2)/2.

| SMILES | relative tumor volume ([1]; Day 0 after administration) | relative tumor volume ([1]; Day 2 after administration) | relative tumor volume ([1]; Day 4 after administration) | relative tumor volume ([1]; Day 7 after administration) | relative tumor volume ([1]; Day 10 after administration) | relative tumor volume ([2]; Day 0 after administration) | relative tumor volume ([2]; Day 3 after administration) | relative tumor volume ([2]; Day 5 after administration) | relative tumor volume ([2]; Day 7 after administration) | relative tumor volume ([2]; Day 10 after administration) | relative tumor volume ([3]; Day 0 after administration initiation) | relative tumor volume ([3]; Day 4 after administration initiation) | relative tumor volume ([3]; Day 8 after administration initiation) | relative tumor volume ([3]; Day 11 after administration initiation) |
| --- | --- | --- | --- | --- | --- | --- | --- | --- | --- | --- | --- | --- | --- | --- |
| CC(=O)O[C@@]12CO[C@@H]1C[C@H](O)[C@@]1(C)C(=O)[C@H](O)C3=C(C)[C@@H](OC(=O)[C@H](O)[C@@H](NC(=O)OC(C)(C)C)c4ccccc4)C[C@@](O)([C@@H](OC(=O)c4ccccc4)[C@H]21)C3(C)C [DTX, docetaxel] | 1.00 | 1.61 | 1.57 | 2.30 | 5.85 | 1.00 | 1.17 | 1.17 | 2.17 | 5.75 |  |  |  |  |
| CC(=O)O[C@H]1C(=O)[C@@]2(C)[C@H]([C@H](OC(=O)c3ccccc3)[C@]3(O)C[C@H](OC(=O)[C@H](O)[C@@H](NC(=O)c4ccccc4)c4ccccc4)C(C)=C1C3(C)C)[C@]1(OC(C)=O)CO[C@@H]1C[C@@H]2O [Paclitaxel, paclitaxel] |  |  |  |  |  |  |  |  |  |  | 1 | 3.28 | 4.75 | 4.07 |

From patent publication US8323669B2, “Polymer conjugate of taxane” (priority 2006, dated 2012)
